BindingDB's records for doi:10.1021/bi1006354 (Beactica, 2010)
Where “and” joins values, the source holds several entries; their conditions need not be identical. Equal entries are not always repeated.

Molecular target: Acetylcholine-binding protein (Lymnaea stagnalis, UniProt P58154)
Assay: Interaction Assay
Details: pH 7.4; 25 °C
Description: Interaction assay using AChBP.

Chain of Acetylcholine-binding protein (P58154 whole entry): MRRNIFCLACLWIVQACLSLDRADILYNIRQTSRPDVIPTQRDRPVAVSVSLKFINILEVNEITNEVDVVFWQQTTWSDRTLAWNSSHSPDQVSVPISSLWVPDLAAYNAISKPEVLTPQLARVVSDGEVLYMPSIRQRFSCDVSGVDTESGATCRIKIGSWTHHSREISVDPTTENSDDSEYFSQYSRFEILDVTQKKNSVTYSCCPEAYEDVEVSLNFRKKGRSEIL

| Structure (SMILES) | Kd |
| --- | --- |
| CC(=O)OCC[N+](C)(C)C [2-acetoxyethyl(trimethyl)ammonium;perchlorate] | 458 nM and 3850 nM |
| CN(C)CCc1cccnc1 [Quinuclidine analogue, 1] | 4250 nM |
| N[C@@H]1C2CCN(CC2)C1Cc1cccnc1 (stereo not given in full) [Quinuclidine analogue, 2] | 345 nM |
| O=C(N[C@@H]1C2CCN(CC2)C1Cc1cccnc1)c1ccccc1 (stereo not given in full) [Quinuclidine analogue, 3] | 141 nM |
| O=C(N[C@@H]1C2CCN(CC2)C1Cc1cccnc1)c1cc2ccccc2o1 (stereo not given in full) [Quinuclidine analogue, 5] | 12.8 nM |
